This passage reports half life and ED50 results from patent US4659721A, “Alkanol derivatives, and pharmaceutical preparation containing these compounds” (Ludwig Heumann & Co. GmbH, priority 1984, dated 1987).

The conditions of data set [1]: therapeutic use, several daily doses of tablets with dose units of 160 to 300 mg; cited from earlier work.
The target of the next data set is T1, histamine-H2 receptors (Rattus norvegicus, UniProt P25102).
T1 construct: from tissue; host or cells: rat stomach, perfused (in vivo Ghosh-Schild preparation)
Description: Gosh-Schild rat (Stimulator: histamine). The note with it: iv, i.V., read-out: ID50 (the source's name). Type of data set: in vivo. An excerpt: These compounds also antagonize the histamine action on the frequency of contraction of the isolated right atrium of the guinea-pig but have no effect on histamine induced contractions of isolated, smooth gastrointestinal muscle when these are produced by […].
Experimental model: Gosh-Schild rat

Each structure is given as a SMILES string.

T1 sequence (P25102 whole entry, the tested form may be a part): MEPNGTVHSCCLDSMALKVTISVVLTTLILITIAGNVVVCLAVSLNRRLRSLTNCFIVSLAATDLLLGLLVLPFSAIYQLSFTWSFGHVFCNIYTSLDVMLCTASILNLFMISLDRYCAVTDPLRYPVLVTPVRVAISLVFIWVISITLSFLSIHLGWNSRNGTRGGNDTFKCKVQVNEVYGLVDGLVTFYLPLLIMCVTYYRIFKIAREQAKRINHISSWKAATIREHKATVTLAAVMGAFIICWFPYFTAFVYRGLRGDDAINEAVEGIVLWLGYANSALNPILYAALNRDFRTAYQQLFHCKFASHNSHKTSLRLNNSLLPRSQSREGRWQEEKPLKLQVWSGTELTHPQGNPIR

With `CN/C(=N/CCSCc1nc[nH]c1C)NC#N` [Cimetidine], the half life result in data set [1] is recorded as “relatively short”. Besides, the ED50 on histamine-H2 receptors was 1.4 µmol/kg.
As to `CNC(=C[N+](=O)[O-])NCCSCc1ccc(CN(C)C)o1` [ranitidine], in data set [1], the half life entry is listed as “relatively short”.
As to `Nc1n[s+]([O-])nc1NCC(O)COCc1cccc(CN2CCCCC2)c1` (stereo not shown) [Example 1, 3-[2-Hydroxy-3-[3-(1-piperidylmethyl)-benzyloxy]propylamino]-4-amino-1,2,5-thiadiazole-1-oxide], the ED50 at histamine-H2 receptors was 0.075 µmol/kg.
